Some test systems named below: HS 578T breast; SN12C renal; RPMI-8226 leukemia; TK-10 renal; MDA-MB-231 breast; UACC-62 melanoma; HOP-62 NSCLC; MALME-3M melanoma; SF-539 CNS; HL-60(TB) leukemia.
What all share (experiment): inhibition of tumour cell growth, NCI panel, 48 h

Structures are written as SMILES. “And” between values parts separate entries of the source, which are not always exact repeats. Identical values can stand only once.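 1) Cells in 96-well plates. 2) Compound, 48 h, 5 concentrations. 3) Linear interpolation between surrounding doses. 4) Unreached endpoint = highest concentration. GI50: concentration for 50% inhibition of growth. The concentration for full growth arrest is given as TGI.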

`Nc1nc(N)c2ncn(Cc3c(Cl)cccc3Cl)c2n1`: the TGI in the assay on HS 578T breast, in the assay with SN12C renal, in the assay with RPMI-8226 leukemia, in the assay on TK-10 renal, with MDA-MB-231 breast and with UACC-62 melanoma was above 100 µM in each case. Further, the TGI in the assay on HOP-62 NSCLC, in the assay with MALME-3M melanoma and in the assay with SF-539 CNS was above 100 µM each time.

With `Cn1c(-c2c(N)n(Cc3ccc(Cl)cc3)c3nc(C#N)c(C#N)nc23)nc2ccccc21`, the GI50 in the assay with HS 578T breast is 4 µM; in the assay with SN12C renal it was 2.57 µM; in the assay on RPMI-8226 leukemia it was 1.73 µM; in the assay on TK-10 renal, 6.9 µM; with HL-60(TB) leukemia, 16.9 µM; with MDA-MB-231 breast, 1.69 µM. Moreover, the GI50 with UACC-62 melanoma is 2.26 µM; in the assay with HOP-62 NSCLC, 11.7 µM; in the assay on SF-539 CNS, 6.64 µM. In addition, the TGI in the assay on HS 578T breast is 24.5 µM; in the assay on SN12C renal, 10.3 µM; in the assay on RPMI-8226 leukemia, above 50 µM; in the assay on TK-10 renal, 15.8 µM; with HL-60(TB) leukemia, above 50 µM; with MDA-MB-231 breast, 9.41 µM. The TGI in the assay on UACC-62 melanoma was 9.71 µM; with HOP-62 NSCLC it was above 50 µM; in the assay with SF-539 CNS, 14.5 µM.

Turning to `O=C(Oc1ccccc1Cl)c1cccnc1Nc1ccnc(C(F)(F)F)c1`, the GI50 in the assay with HS 578T breast is 17.3 µM; with SN12C renal it was 4.03 µM; with RPMI-8226 leukemia, 12.4 µM; in the assay with TK-10 renal, 24.7 µM; with MDA-MB-231 breast it was 11.9 µM; in the assay on UACC-62 melanoma, 6.13 µM. Moreover, the results for the GI50 in the assay on HOP-62 NSCLC, with MALME-3M melanoma and with SF-539 CNS were 19 µM, 8.29 µM and 13.4 µM, respectively. For the same compound, the TGI in the assay on HS 578T breast was determined as 48.9 µM; in the assay on SN12C renal it was 18 µM; in the assay on RPMI-8226 leukemia it was 36.7 µM; with TK-10 renal, 70.7 µM; in the assay with MDA-MB-231 breast, 46.7 µM; in the assay on UACC-62 melanoma, 18.7 µM. Also, the TGI worked out at 37 µM in the assay on HOP-62 NSCLC, 41.1 µM in the assay on MALME-3M melanoma and 39.8 µM in the assay on SF-539 CNS.

In the case of `COc1cc2c(c(OC)c1OC)C(=O)c1c-2n(CCCN)c(=O)c2cc([N+](=O)[O-])ccc12`, the GI50 with HS 578T breast is 2 µM; with SN12C renal, 5.11 µM; in the assay with RPMI-8226 leukemia, 1.21 µM; in the assay on TK-10 renal, 0.616 µM; in the assay with HL-60(TB) leukemia, 4.5 µM; with MDA-MB-231 breast, 1.8 µM. Besides, the GI50 is 9.16 µM with UACC-62 melanoma, 0.958 µM in the assay with HOP-62 NSCLC and 0.55 µM in the assay with SF-539 CNS. Further, the TGI with HS 578T breast was found to be 4.99 µM; in the assay on SN12C renal, 13.6 µM; in the assay on RPMI-8226 leukemia, 3.32 µM; in the assay with TK-10 renal, 1.3 µM; in the assay with HL-60(TB) leukemia, 10.9 µM; in the assay with MDA-MB-231 breast, 4 µM. Moreover, the TGI with UACC-62 melanoma is 24.2 µM; in the assay with HOP-62 NSCLC, 2.6 µM; in the assay on SF-539 CNS, 1.16 µM.

As to `COc1cc2c(cc1OCCN1C(=O)c3cccc4cccc(c34)C1=O)N=C[C@@H]1CCCN1C2=O`, the GI50 with HS 578T breast was 15.2 µM; with RPMI-8226 leukemia, 26 µM; with MDA-MB-231 breast, above 100 µM; with UACC-62 melanoma it was 17.8 µM; with MALME-3M melanoma, 11.7 µM. Moreover, the TGI was 19.9 µM and 35.8 µM with HS 578T breast; 14.7 µM with SN12C renal; 32 µM and > 100 µM in the assay with RPMI-8226 leukemia; 14.8 µM with TK-10 renal; 14.6 µM and > 100 µM with MDA-MB-231 breast; 14.9 µM and 37.5 µM with UACC-62 melanoma. Further, the TGI with HOP-62 NSCLC was 47.5 µM; in the assay with MALME-3M melanoma, 15.7 µM and 24.5 µM; in the assay with SF-539 CNS it was 17.3 µM.

As to `CCN(CC)CCNc1ccc(CO)c2sc3ccccc3c(=O)c12`, the GI50 in the assay with HS 578T breast is 4.26 µM and 9.64 µM; with SN12C renal it was 6.55 µM [middle of 4 runs]; in the assay with RPMI-8226 leukemia it was 2.51 µM and 1.59 µM; with TK-10 renal, 2.96 µM; in the assay on HL-60(TB) leukemia it was 8.47 µM [middle of 4 runs]; with MDA-MB-231 breast, 4.26 µM and 4.92 µM. Further, the GI50 in the assay on UACC-62 melanoma is 1.94 µM and 11.3 µM; with SF-539 CNS, 4.53 µM and 7.78 µM and 16.7 µM. The TGI in the assay on HS 578T breast is 24.8 µM and 26.8 µM; in the assay with SN12C renal it was 20 µM [middle of 4 runs]; in the assay on TK-10 renal, 11.4 µM and 24.9 µM; in the assay with HL-60(TB) leukemia it was 24.5 µM [middle of 4 runs]; with MDA-MB-231 breast, 21.7 µM and 20.6 µM; with HOP-62 NSCLC it was 26 µM [middle of 4 runs]. In addition, the TGI with SF-539 CNS is 24.1 µM [middle of 4 runs].

On to `COc1ccccc1NC(=O)N/C(N)=N/c1nc2ccccc2s1`, for which the GI50 in the assay with HS 578T breast is 0.0695 µM; with SN12C renal, 0.307 µM; in the assay with RPMI-8226 leukemia it was 0.163 µM; with HL-60(TB) leukemia, 0.0827 µM; in the assay on MDA-MB-231 breast, 3.48 µM; in the assay on UACC-62 melanoma, 0.0647 µM. Moreover, the GI50 was 0.111 µM in the assay with HOP-62 NSCLC and 0.0718 µM in the assay on SF-539 CNS. Moreover, the TGI is above 100 µM with HS 578T breast; above 100 µM in the assay on SN12C renal; above 72.4 µM in the assay with RPMI-8226 leukemia; above 100 µM with TK-10 renal; 0.436 µM with HL-60(TB) leukemia; above 100 µM in the assay with MDA-MB-231 breast. Also, the results for the TGI in the assay with UACC-62 melanoma, in the assay with HOP-62 NSCLC and with SF-539 CNS were above 100 µM, above 100 µM and 0.411 µM, respectively.
